How the values were obtained:
Assay in all cases: relative viability (nuclei count vs DMSO), 5 days (fraction); higher = more cells survive
Calu-6 = system: Calu-6
How it was run: (§1)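 Lung cancer cell lines, seeded in 1536-well plates, were treated the following day by pin tool with a single drug or with five library-drug doses (not always all listed) in √10 steps on top of a fixed anchor-drug dose. Cells were fixed and nuclei stained in one step after 5 days, and nuclei were counted. Relative viability is the nuclei count for treated wells divided by that for vehicle wells, reported as medians of duplicate plates.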

NCI-H1299 = system: NCI-H1299
How it was run: as §1

EBC-1 = system: EBC-1
How it was run: as §1

NCI-H1355 = system: NCI-H1355
How it was run: as §1

IA-LM = system: IA-LM
How it was run: as §1

NCI-H23 = system: NCI-H23
How it was run: as §1

NCI-H1993 = system: NCI-H1993
How it was run: as §1

NCI-H1703 = system: NCI-H1703
How it was run: as §1

NCI-H322M = system: NCI-H322M
How it was run: as §1

UMC-11 = system: UMC-11
How it was run: as §1

LCLC-97TM1 = system: LCLC-97TM1
How it was run: as §1

NCI-H596 = system: NCI-H596
How it was run: as §1

A549 = system: A549
How it was run: as §1

Question: How did the relative viability (Calu-6; first compound 0.08 µM) turn out when `COc1nc(C)cnc1NS(=O)(=O)c1cccnc1-c1ccc(-c2nnco2)cc1` [Zibotentan] + C[C@]1(O)C[C@@H](c2nc(-c3ccc4ccc(-c5ccccc5)nc4c3)c3c(N)nccn32)C1 [Linsitinib] (partner 1 µM) was run?
Answer: 0.996

Question: And the relative viability (Calu-6; first compound 0.253 µM)?
Answer: 0.885

Question: What about the relative viability (Calu-6; first compound 0.8 µM) of the same compound?
Answer: 0.966

Question: What about the relative viability (Calu-6; first compound 2.53 µM) of the same compound?
Answer: 0.922

Question: What about the relative viability (NCI-H1299; first compound 0.08 µM) of the same compound?
Answer: 0.938

Question: What about the relative viability (NCI-H1299; first compound 0.253 µM) of the same compound?
Answer: 1.01

Question: What about the relative viability (NCI-H1299; first compound 0.8 µM) of the same compound?
Answer: 0.984

Question: And the relative viability (NCI-H1299; first compound 2.53 µM)?
Answer: 0.987

Question: What about the relative viability (EBC-1; first compound 0.08 µM) of the same compound?
Answer: 0.816

Question: What about the relative viability (EBC-1; first compound 0.253 µM) of the same compound?
Answer: 0.986

Question: And the relative viability (EBC-1; first compound 0.8 µM)?
Answer: 0.934

Question: What about the relative viability (EBC-1; first compound 2.53 µM) of the same compound?
Answer: 0.915

Question: And the relative viability (NCI-H1355; first compound 0.08 µM)?
Answer: 0.812

Question: What about the relative viability (NCI-H1355; first compound 0.253 µM) of the same compound?
Answer: 0.818

Question: And the relative viability (NCI-H1355; first compound 0.8 µM)?
Answer: 0.824

Question: What about the relative viability (NCI-H1355; first compound 2.53 µM) of the same compound?
Answer: 0.909

Question: And the relative viability (IA-LM; first compound 0.08 µM)?
Answer: 0.627

Question: And the relative viability (IA-LM; first compound 0.253 µM)?
Answer: 0.743

Question: And the relative viability (IA-LM; first compound 0.8 µM)?
Answer: 0.778

Question: What about the relative viability (IA-LM; first compound 2.53 µM) of the same compound?
Answer: 0.456

Question: And the relative viability (NCI-H23; first compound 0.08 µM)?
Answer: 0.614

Question: And the relative viability (NCI-H23; first compound 0.253 µM)?
Answer: 0.545

Question: What about the relative viability (NCI-H23; first compound 0.8 µM) of the same compound?
Answer: 0.653

Question: What about the relative viability (NCI-H23; first compound 2.53 µM) of the same compound?
Answer: 0.477

Question: What about the relative viability (NCI-H1993; first compound 0.253 µM) of the same compound?
Answer: 0.838

Question: And the relative viability (NCI-H1993; first compound 0.8 µM)?
Answer: 0.75

Question: And the relative viability (NCI-H1993; first compound 2.53 µM)?
Answer: 0.85

Question: And the relative viability (NCI-H1703; first compound 0.08 µM)?
Answer: 0.655

Question: And the relative viability (NCI-H1703; first compound 0.253 µM)?
Answer: 0.718

Question: And the relative viability (NCI-H1703; first compound 0.8 µM)?
Answer: 0.865

Question: And the relative viability (NCI-H1703; first compound 2.53 µM)?
Answer: 0.167

Question: And the relative viability (NCI-H322M; first compound 0.08 µM)?
Answer: 0.912

Question: What about the relative viability (NCI-H322M; first compound 0.253 µM) of the same compound?
Answer: 0.898

Question: And the relative viability (NCI-H322M; first compound 0.8 µM)?
Answer: 0.933

Question: And the relative viability (NCI-H322M; first compound 2.53 µM)?
Answer: 0.843

Question: And the relative viability (UMC-11; first compound 0.08 µM)?
Answer: 1.11

Question: What about the relative viability (UMC-11; first compound 0.253 µM) of the same compound?
Answer: 0.944

Question: And the relative viability (UMC-11; first compound 0.8 µM)?
Answer: 1.03

Question: What about the relative viability (UMC-11; first compound 2.53 µM) of the same compound?
Answer: 1.05

Question: What about the relative viability (LCLC-97TM1; first compound 0.08 µM) of the same compound?
Answer: 0.152

Question: And the relative viability (LCLC-97TM1; first compound 0.253 µM)?
Answer: 0.171

Question: What about the relative viability (LCLC-97TM1; first compound 0.8 µM) of the same compound?
Answer: 0.175

Question: And the relative viability (LCLC-97TM1; first compound 2.53 µM)?
Answer: 0.215

Question: And the relative viability (NCI-H596; first compound 0.08 µM)?
Answer: 1.23

Question: What about the relative viability (NCI-H596; first compound 0.253 µM) of the same compound?
Answer: 1.08

Question: And the relative viability (NCI-H596; first compound 0.8 µM)?
Answer: 1.03

Question: And the relative viability (NCI-H596; first compound 2.53 µM)?
Answer: 1.11

Question: What about the relative viability (A549; first compound 0.08 µM) of the same compound?
Answer: 0.578

Question: What about the relative viability (A549; first compound 0.253 µM) of the same compound?
Answer: 0.539

Question: And the relative viability (A549; first compound 0.8 µM)?
Answer: 0.589

Question: What about the relative viability (A549; first compound 2.53 µM) of the same compound?
Answer: 0.642

Question: With `O=c1cc(N2CCOCC2)oc2c(-c3cccc4c3sc3ccccc34)cccc12` + C[C@]1(O)C[C@@H](c2nc(-c3ccc4ccc(-c5ccccc5)nc4c3)c3c(N)nccn32)C1 [Linsitinib] (partner 1 µM) as the compound, how does the relative viability (Calu-6; first compound 0.01 µM) read?
Answer: 0.963

Question: And the relative viability (Calu-6; first compound 0.03162 µM)?
Answer: 0.935

Question: What about the relative viability (Calu-6; first compound 0.1 µM) of the same compound?
Answer: 1.06

Question: And the relative viability (Calu-6; first compound 0.3162 µM)?
Answer: 0.944

Question: And the relative viability (Calu-6; first compound 1 µM)?
Answer: 0.983

Question: What about the relative viability (NCI-H1299; first compound 0.01 µM) of the same compound?
Answer: 0.972

Question: What about the relative viability (NCI-H1299; first compound 0.03162 µM) of the same compound?
Answer: 0.937

Question: What about the relative viability (NCI-H1299; first compound 0.1 µM) of the same compound?
Answer: 0.945

Question: And the relative viability (NCI-H1299; first compound 0.3162 µM)?
Answer: 1.01

Question: What about the relative viability (NCI-H1299; first compound 1 µM) of the same compound?
Answer: 0.995

Question: And the relative viability (EBC-1; first compound 0.01 µM)?
Answer: 0.973

Question: What about the relative viability (EBC-1; first compound 0.03162 µM) of the same compound?
Answer: 0.942

Question: What about the relative viability (EBC-1; first compound 0.1 µM) of the same compound?
Answer: 0.835

Question: And the relative viability (EBC-1; first compound 0.3162 µM)?
Answer: 1.06

Question: And the relative viability (EBC-1; first compound 1 µM)?
Answer: 0.993

Question: What about the relative viability (NCI-H1355; first compound 0.01 µM) of the same compound?
Answer: 0.772

Question: What about the relative viability (NCI-H1355; first compound 0.03162 µM) of the same compound?
Answer: 0.895

Question: What about the relative viability (NCI-H1355; first compound 0.3162 µM) of the same compound?
Answer: 0.819

Question: And the relative viability (NCI-H1355; first compound 1 µM)?
Answer: 0.849

Question: What about the relative viability (IA-LM; first compound 0.01 µM) of the same compound?
Answer: 0.667

Question: What about the relative viability (IA-LM; first compound 0.03162 µM) of the same compound?
Answer: 0.684

Question: And the relative viability (IA-LM; first compound 0.1 µM)?
Answer: 0.698

Question: What about the relative viability (IA-LM; first compound 0.3162 µM) of the same compound?
Answer: 0.506

Question: And the relative viability (IA-LM; first compound 1 µM)?
Answer: 0.589

Question: And the relative viability (NCI-H23; first compound 0.01 µM)?
Answer: 0.623

Question: What about the relative viability (NCI-H23; first compound 0.03162 µM) of the same compound?
Answer: 0.641

Question: What about the relative viability (NCI-H23; first compound 0.3162 µM) of the same compound?
Answer: 0.663

Question: What about the relative viability (NCI-H23; first compound 1 µM) of the same compound?
Answer: 0.476

Question: What about the relative viability (NCI-H1993; first compound 0.01 µM) of the same compound?
Answer: 0.73

Question: What about the relative viability (NCI-H1993; first compound 0.03162 µM) of the same compound?
Answer: 0.785

Question: And the relative viability (NCI-H1993; first compound 0.1 µM)?
Answer: 0.687

Question: And the relative viability (NCI-H1993; first compound 0.3162 µM)?
Answer: 0.79

Question: What about the relative viability (NCI-H1993; first compound 1 µM) of the same compound?
Answer: 0.531

Question: And the relative viability (NCI-H1703; first compound 0.01 µM)?
Answer: 0.786

Question: What about the relative viability (NCI-H1703; first compound 0.03162 µM) of the same compound?
Answer: 0.991

Question: And the relative viability (NCI-H1703; first compound 0.1 µM)?
Answer: 0.684

Question: And the relative viability (NCI-H1703; first compound 0.3162 µM)?
Answer: 0.641

Question: What about the relative viability (NCI-H1703; first compound 1 µM) of the same compound?
Answer: 0.919

Question: And the relative viability (NCI-H322M; first compound 0.01 µM)?
Answer: 0.913

Question: What about the relative viability (NCI-H322M; first compound 0.03162 µM) of the same compound?
Answer: 0.915

Question: And the relative viability (NCI-H322M; first compound 0.3162 µM)?
Answer: 0.993

Question: What about the relative viability (NCI-H322M; first compound 1 µM) of the same compound?
Answer: 0.83

Question: What about the relative viability (UMC-11; first compound 0.01 µM) of the same compound?
Answer: 1.07

Question: What about the relative viability (UMC-11; first compound 0.03162 µM) of the same compound?
Answer: 1.03

Question: And the relative viability (UMC-11; first compound 0.1 µM)?
Answer: 1.01

Question: And the relative viability (UMC-11; first compound 0.3162 µM)?
Answer: 1.02

Question: What about the relative viability (UMC-11; first compound 1 µM) of the same compound?
Answer: 1.06

Question: What about the relative viability (LCLC-97TM1; first compound 0.01 µM) of the same compound?
Answer: 0.217

Question: What about the relative viability (LCLC-97TM1; first compound 0.03162 µM) of the same compound?
Answer: 0.203

Question: And the relative viability (LCLC-97TM1; first compound 0.3162 µM)?
Answer: 0.198

Question: What about the relative viability (LCLC-97TM1; first compound 1 µM) of the same compound?
Answer: 0.18

Question: What about the relative viability (NCI-H596; first compound 0.01 µM) of the same compound?
Answer: 1.14

Question: What about the relative viability (NCI-H596; first compound 0.03162 µM) of the same compound?
Answer: 1.02

Question: What about the relative viability (NCI-H596; first compound 0.1 µM) of the same compound?
Answer: 1.19

Question: And the relative viability (NCI-H596; first compound 0.3162 µM)?
Answer: 0.968

Question: What about the relative viability (NCI-H596; first compound 1 µM) of the same compound?
Answer: 0.921

Question: What about the relative viability (A549; first compound 0.01 µM) of the same compound?
Answer: 0.568

Question: And the relative viability (A549; first compound 0.03162 µM)?
Answer: 0.613

Question: What about the relative viability (A549; first compound 0.1 µM) of the same compound?
Answer: 0.577

Question: What about the relative viability (A549; first compound 0.3162 µM) of the same compound?
Answer: 0.663

Question: And the relative viability (A549; first compound 1 µM)?
Answer: 0.592

— the supplement of paper PMC10307832
